In ChEMBL document CHEMBL2150935, “Synthesis, biological evaluation and chemometric analysis of indazole derivatives. 1,2-Disubstituted 5-nitroindazolinones, new prototypes of antichagasic drug” (Eur J Med Chem, 2012) one finds inhibition of growth and inhibition data, which are given here for 24 compounds.

Data set [1] relates to Trypanosoma cruzi. Nature of the data set: Growth inhibition of epimastigote form of Trypanosoma cruzi CL-B5 at 128 uM after 72 hrs by lacZ reporter gene assay. Format: functional. The conditions noted are these: CL-B5, 72 h, read-out: GI.
Data set [2] can be described thus: Growth inhibition of mouse J774 cells at 256 uM after 24 hrs by resazurin reduction assay. Format: cell-based. The conditions noted are these: read-out: GI.
In data set [3] the test system is Trypanosoma cruzi. In words: Growth inhibition of epimastigote form of Trypanosoma cruzi CL-B5 at 256 uM after 72 hrs by lacZ reporter gene assay. The class given is functional. The conditions noted are these: CL-B5, 72 h, read-out: GI.
Data set [4] can be described thus: Growth inhibition of mouse J774 cells at 128 uM after 24 hrs by resazurin reduction assay. Format: cell-based. The conditions noted are these: read-out: GI.
Data set [5] concerns Trypanosoma cruzi. In words: Growth inhibition of epimastigote form of Trypanosoma cruzi CL-B5 at 64 uM after 72 hrs by lacZ reporter gene assay. Format: functional. The conditions noted are these: CL-B5, 72 h, read-out: GI.
Data set [6] can be described thus: Growth inhibition of mouse J774 cells at 64 uM after 24 hrs by resazurin reduction assay. The conditions noted are these: read-out: GI. Format: cell-based.

As to `CCCn1c2ccc([N+](=O)[O-])cc2c(=O)n1-c1ccccc1`, in the data set on Trypanosoma cruzi [1], the inhibition of growth at 128 µM amounted to 76.5%. Also, the inhibition at 24 h, 256 µM in data set [2] was 0%. The inhibition of growth at 256 µM in the data set with Trypanosoma cruzi [3] was 86.1%. Moreover, the inhibition at 24 h, 128 µM in data set [4] is 0%. In addition, the inhibition of growth at 64 µM with Trypanosoma cruzi [5] was 71.8%. Also, the inhibition at 24 h, 64 µM in data set [6] was 0%.

Regarding `O=c1c2cc([N+](=O)[O-])ccc2n(Cc2ccccc2)n1Cc1ccccc1`, the inhibition of growth at 128 µM with Trypanosoma cruzi [1] turned out to be 83.7%. In data set [2], the inhibition at 24 h, 256 µM was 57.9%. In addition, in the data set with Trypanosoma cruzi [3], the inhibition of growth at 256 µM came out at 69.2%. Further, the inhibition at 24 h, 128 µM in data set [4] is 64%. In addition, the inhibition of growth at 64 µM with Trypanosoma cruzi [5] was found to be 74.5%. Moreover, the inhibition at 24 h, 64 µM in data set [6] is 9.77%.

Consider `CCCn1c2ccc([N+](=O)[O-])cc2c(=O)n1C`, for which the inhibition of growth at 128 µM with Trypanosoma cruzi [1] came out at 7.92%. In addition, in data set [2], the inhibition at 24 h, 256 µM was 0%. Besides, the inhibition of growth at 256 µM in the data set on Trypanosoma cruzi [3] is 11.6%. The inhibition at 24 h, 128 µM in data set [4] came to 0%. Besides, the inhibition of growth at 64 µM with Trypanosoma cruzi [5] was found to be 3.05%. In addition, the inhibition at 24 h, 64 µM in data set [6] was 0%.

With `CCCn1c2ccc([N+](=O)[O-])cc2c(=O)n1Cc1ccc2ccccc2c1`, in the data set with Trypanosoma cruzi [1], the inhibition of growth at 128 µM was found to be 70.4%. The inhibition at 24 h, 256 µM in data set [2] came out at 15.5%. The inhibition of growth at 256 µM in the data set with Trypanosoma cruzi [3] was found to be 41.9%. Moreover, in data set [4], the inhibition at 24 h, 128 µM amounted to 11.9%. Besides, the inhibition of growth at 64 µM with Trypanosoma cruzi [5] was determined as 78%. Further, in data set [6], the inhibition at 24 h, 64 µM was 0%.

Take `COc1c2cc([N+](=O)[O-])ccc2nn1C`: the inhibition of growth at 128 µM in the data set with Trypanosoma cruzi [1] is 79.2%. Moreover, the inhibition at 24 h, 256 µM in data set [2] was found to be 21.6%. The inhibition of growth at 256 µM in the data set with Trypanosoma cruzi [3] turned out to be 78.7%. Moreover, the inhibition at 24 h, 128 µM in data set [4] worked out at 6.57%. Besides, the inhibition of growth at 64 µM in the data set with Trypanosoma cruzi [5] came out at 67.8%. In data set [6], the inhibition at 24 h, 64 µM worked out at 0%.

Turning to `CCCCCn1c2ccc([N+](=O)[O-])cc2c(=O)n1Cc1ccccc1`, the inhibition of growth at 128 µM in the data set with Trypanosoma cruzi [1] was 90%. In data set [2], the inhibition at 24 h, 256 µM stood at 81%. Further, the inhibition of growth at 256 µM in the data set on Trypanosoma cruzi [3] is 90.2%. In data set [4], the inhibition at 24 h, 128 µM was 71.8%. For the same compound, the inhibition of growth at 64 µM with Trypanosoma cruzi [5] was 85.2%. Further, the inhibition at 24 h, 64 µM in data set [6] was 54.1%.

`CCCOc1c2cc([N+](=O)[O-])ccc2nn1C`: the inhibition of growth at 128 µM with Trypanosoma cruzi [1] is 16.9%. Moreover, in data set [2], the inhibition at 24 h, 256 µM came to 62.4%. Besides, the inhibition of growth at 256 µM with Trypanosoma cruzi [3] came to 91.2%. Moreover, in data set [4], the inhibition at 24 h, 128 µM is 35.3%. Also, the inhibition of growth at 64 µM with Trypanosoma cruzi [5] was 27.4%. In addition, the inhibition at 24 h, 64 µM in data set [6] turned out to be 0%.

On to `Cn1nc(OCc2ccc3ccccc3c2)c2cc([N+](=O)[O-])ccc21`, for which the inhibition of growth at 128 µM in the data set on Trypanosoma cruzi [1] turned out to be 23.6%. Besides, the inhibition of growth at 256 µM with Trypanosoma cruzi [3] amounted to 11.3%. Moreover, the inhibition at 24 h, 128 µM in data set [4] came to 9%. In addition, the inhibition of growth at 64 µM with Trypanosoma cruzi [5] stood at 46.4%. In addition, the inhibition at 24 h, 64 µM in data set [6] is 13.3%.

Take `Cn1c2ccc([N+](=O)[O-])cc2c(=O)n1Cc1ccccc1`: the inhibition of growth at 128 µM with Trypanosoma cruzi [1] came out at 86%. Besides, the inhibition at 24 h, 256 µM in data set [2] turned out to be 0%. Besides, in the data set on Trypanosoma cruzi [3], the inhibition of growth at 256 µM amounted to 91.7%. The inhibition at 24 h, 128 µM in data set [4] worked out at 29%. Besides, the inhibition of growth at 64 µM in the data set with Trypanosoma cruzi [5] is 83.3%. The inhibition at 24 h, 64 µM in data set [6] came to 15.2%.

`COc1c2cc([N+](=O)[O-])ccc2nn1Cc1ccc2ccccc2c1`: the inhibition of growth at 128 µM with Trypanosoma cruzi [1] came to 35.6%. The inhibition at 24 h, 256 µM in data set [2] stood at 9.31%. Moreover, the inhibition of growth at 256 µM with Trypanosoma cruzi [3] came out at 72.5%. Further, the inhibition of growth at 64 µM in the data set with Trypanosoma cruzi [5] turned out to be 27%.

For the compound `COc1c2cc([N+](=O)[O-])ccc2nn1Cc1ccccc1`, in the data set with Trypanosoma cruzi [1], the inhibition of growth at 128 µM is 38.1%. Moreover, the inhibition at 24 h, 256 µM in data set [2] was found to be 6.83%. Further, the inhibition of growth at 256 µM with Trypanosoma cruzi [3] stood at 21.2%. The inhibition at 24 h, 128 µM in data set [4] stood at 0%. For the same compound, the inhibition of growth at 64 µM in the data set on Trypanosoma cruzi [5] stood at 48.3%. The inhibition at 24 h, 64 µM in data set [6] was 0%.

For `Cn1c(=O)c2cc([N+](=O)[O-])ccc2n1C`, the inhibition of growth at 128 µM with Trypanosoma cruzi [1] was determined as 42.8%. Further, in data set [2], the inhibition at 24 h, 256 µM is 0%. For the same compound, in the data set on Trypanosoma cruzi [3], the inhibition of growth at 256 µM was found to be 68%. In addition, in data set [4], the inhibition at 24 h, 128 µM worked out at 0%. In addition, in the data set on Trypanosoma cruzi [5], the inhibition of growth at 64 µM came to 42.7%. Also, the inhibition at 24 h, 64 µM in data set [6] is 11.4%.

Turning to `O=[N+]([O-])c1ccc2nn(Cc3ccccc3)c(OCc3ccccc3)c2c1`, the inhibition of growth at 128 µM in the data set with Trypanosoma cruzi [1] amounted to 43.5%. Further, the inhibition at 24 h, 256 µM in data set [2] came to 64.7%. The inhibition of growth at 256 µM in the data set with Trypanosoma cruzi [3] was 34.5%. Further, in data set [4], the inhibition at 24 h, 128 µM turned out to be 15.2%. For the same compound, the inhibition of growth at 64 µM in the data set with Trypanosoma cruzi [5] amounted to 51.8%.

`Cn1c(=O)c2cc([N+](=O)[O-])ccc2n1Cc1ccccc1`: the inhibition of growth at 128 µM with Trypanosoma cruzi [1] was 70.3%. Also, the inhibition at 24 h, 256 µM in data set [2] came out at 6.33%. Further, the inhibition of growth at 256 µM with Trypanosoma cruzi [3] was 80.6%. Moreover, the inhibition at 24 h, 128 µM in data set [4] came out at 6.91%. Also, the inhibition of growth at 64 µM with Trypanosoma cruzi [5] stood at 39.8%. The inhibition at 24 h, 64 µM in data set [6] was determined as 0.55%.

Regarding `CC(C)n1c2ccc([N+](=O)[O-])cc2c(=O)n1C`, in the data set on Trypanosoma cruzi [1], the inhibition of growth at 128 µM is 10.5%. Besides, the inhibition at 24 h, 256 µM in data set [2] came out at 0%. The inhibition of growth at 256 µM in the data set with Trypanosoma cruzi [3] amounted to 13.2%. Besides, in data set [4], the inhibition at 24 h, 128 µM was determined as 0%. Also, in the data set on Trypanosoma cruzi [5], the inhibition of growth at 64 µM was found to be 7.45%. In addition, the inhibition at 24 h, 64 µM in data set [6] turned out to be 0%.

`CC(C)Oc1c2cc([N+](=O)[O-])ccc2nn1C`: the inhibition of growth at 128 µM in the data set with Trypanosoma cruzi [1] amounted to 70.5%. Besides, the inhibition at 24 h, 256 µM in data set [2] came to 20%. Moreover, the inhibition of growth at 256 µM with Trypanosoma cruzi [3] turned out to be 71.9%. In addition, the inhibition at 24 h, 128 µM in data set [4] was determined as 19.2%. The inhibition of growth at 64 µM with Trypanosoma cruzi [5] came out at 71.5%. In addition, the inhibition at 24 h, 64 µM in data set [6] is 6.34%.

On to `CC(C)Oc1c2cc([N+](=O)[O-])ccc2nn1-c1ccccc1`, for which the inhibition of growth at 128 µM with Trypanosoma cruzi [1] turned out to be 11.3%. For the same compound, the inhibition of growth at 256 µM with Trypanosoma cruzi [3] amounted to 6.26%. The inhibition of growth at 64 µM in the data set on Trypanosoma cruzi [5] amounted to 20.7%.

On to `Cn1c2ccccc2c(=O)n1Cc1ccccc1`, for which, in the data set on Trypanosoma cruzi [1], the inhibition of growth at 128 µM was 36.6%. In the data set with Trypanosoma cruzi [3], the inhibition of growth at 256 µM worked out at 55.8%. Besides, the inhibition of growth at 64 µM in the data set with Trypanosoma cruzi [5] is 28%.

Turning to `CCCCOc1c2cc([N+](=O)[O-])ccc2nn1Cc1ccccc1`, the inhibition of growth at 128 µM in the data set on Trypanosoma cruzi [1] was 48.5%. The inhibition at 24 h, 256 µM in data set [2] was 26.3%. For the same compound, in the data set on Trypanosoma cruzi [3], the inhibition of growth at 256 µM stood at 54.7%. The inhibition of growth at 64 µM in the data set with Trypanosoma cruzi [5] was 24.6%.

Turning to `COc1nn(-c2ccccc2)c2ccc([N+](=O)[O-])cc12`, the inhibition of growth at 128 µM with Trypanosoma cruzi [1] came out at 40.3%. The inhibition at 24 h, 256 µM in data set [2] was 27.1%. In addition, the inhibition of growth at 256 µM with Trypanosoma cruzi [3] was 56.3%. Moreover, the inhibition of growth at 64 µM in the data set with Trypanosoma cruzi [5] is 21.4%.

In the case of `COc1c2cc([N+](=O)[O-])ccc2nn1-c1ccccc1`, the inhibition of growth at 128 µM in the data set with Trypanosoma cruzi [1] is 0%. In the data set with Trypanosoma cruzi [3], the inhibition of growth at 256 µM was found to be 2.81%. Moreover, the inhibition of growth at 64 µM in the data set on Trypanosoma cruzi [5] worked out at 0%.

As for `CC(C)Oc1c2cc([N+](=O)[O-])ccc2nn1Cc1ccccc1`, the inhibition of growth at 128 µM with Trypanosoma cruzi [1] is 67.1%. Further, the inhibition at 24 h, 256 µM in data set [2] worked out at 41.4%. For the same compound, the inhibition of growth at 256 µM in the data set on Trypanosoma cruzi [3] turned out to be 70.8%. The inhibition of growth at 64 µM in the data set on Trypanosoma cruzi [5] was found to be 56.2%.

`CC(C)Oc1c2cc([N+](=O)[O-])ccc2nn1Cc1ccc2ccccc2c1`: the inhibition of growth at 128 µM in the data set on Trypanosoma cruzi [1] worked out at 76.6%. Also, the inhibition of growth at 256 µM in the data set with Trypanosoma cruzi [3] came to 63.7%. Besides, in the data set with Trypanosoma cruzi [5], the inhibition of growth at 64 µM was 76.5%. Besides, the inhibition at 24 h, 64 µM in data set [6] was 26.5%.

For the compound `Cn1c(=O)c2cc([N+](=O)[O-])ccc2n1-c1ccccc1`, the inhibition of growth at 128 µM in the data set on Trypanosoma cruzi [1] was 19.4%. For the same compound, the inhibition at 24 h, 256 µM in data set [2] was determined as 43.1%. Besides, the inhibition of growth at 256 µM in the data set with Trypanosoma cruzi [3] was 26.6%. The inhibition of growth at 64 µM in the data set on Trypanosoma cruzi [5] was 14.2%.
